Values quoted from earlier work as cited in patent US8962847B2, “Multicomponent crystals made of ([2-amino-6-(4-fluoro-benzylamino)-pyridin-3-yl]-carbamic acid ethyl ester and an arylpropionic acid” (TEVA GmbH, priority 2010, dated 2015).
Structures can show the parent of a compound that is named as a salt. Where two headings read alike, the source gives them in different places.

What was measured:
[1] = system: antinociceptive (pain perception inhibiting) activity; settings: mice, flupirtine maleate 15 mg per kg with various dosages of NSAIDS
[2] = system: antinociceptive (pain perception inhibiting) activity; settings: rat, flupirtine maleate 35 mg per kg with various dosages of NSAIDS
[3] = system: pain, fever, inflammation; settings: in vivo

Compound	effect on the antinociceptive activity of paracetamol, acetyl salicylic acid, and diclofenac [1]	effect on the antinociceptive activity of paracetamol, acetyl salicylic acid, and diclofenac [2]	beginning of action compared with the racemic mixture of ibuprofen [3]
CCOC(=O)Nc1ccc(NCc2ccc(F)cc2)nc1N [flupirtine maleate]	enhances	enhances	
CC(C)Cc1ccc([C@H](C)C(=O)O)cc1 [dexibuprofen, (+)-(2S)-2-[4-(2-methylpropyl)-phenyl]propanoic acid]			somewhat faster
